Results published in ChEMBL document CHEMBL5096202, “Carbon-silicon switch led to the discovery of novel synthetic cannabinoids with therapeutic effects in a mouse model of multiple sclerosis” (Eur J Med Chem, 2021).

Tests used:
[1] = biological target: T1, Cannabinoid receptor 1 (Homo sapiens, UniProt P21554); experiment: Displacement of [3H]-CP55940 from recombinant human CB1 receptor expressed in CHO cells assessed as inhibition constant incubated for 120 mins by radioligand binding assay; assay type: cell-based
T1 sequence (P21554 whole entry): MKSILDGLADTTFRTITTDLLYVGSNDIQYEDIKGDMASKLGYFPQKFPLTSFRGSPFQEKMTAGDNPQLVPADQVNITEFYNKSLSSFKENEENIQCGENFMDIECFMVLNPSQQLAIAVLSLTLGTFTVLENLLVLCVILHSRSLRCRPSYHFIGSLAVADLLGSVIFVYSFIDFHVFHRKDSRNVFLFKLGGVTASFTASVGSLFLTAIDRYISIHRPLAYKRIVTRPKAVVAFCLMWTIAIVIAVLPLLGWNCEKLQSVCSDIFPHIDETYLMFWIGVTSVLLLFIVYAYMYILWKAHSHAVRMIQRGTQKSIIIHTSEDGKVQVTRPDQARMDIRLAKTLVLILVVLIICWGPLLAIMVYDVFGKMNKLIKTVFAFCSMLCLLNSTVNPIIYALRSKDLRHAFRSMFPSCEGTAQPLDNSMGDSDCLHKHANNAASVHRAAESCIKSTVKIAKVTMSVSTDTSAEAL

[2] = biological target: T2, Cannabinoid receptor 2 (Homo sapiens, UniProt P34972); experiment: Displacement of [3H]-CP55940 from recombinant human CB2 receptor expressed in CHO cells assessed as inhibition constant incubated for 120 mins by radioligand binding assay; assay type: cell-based
T2 sequence (P34972 whole entry): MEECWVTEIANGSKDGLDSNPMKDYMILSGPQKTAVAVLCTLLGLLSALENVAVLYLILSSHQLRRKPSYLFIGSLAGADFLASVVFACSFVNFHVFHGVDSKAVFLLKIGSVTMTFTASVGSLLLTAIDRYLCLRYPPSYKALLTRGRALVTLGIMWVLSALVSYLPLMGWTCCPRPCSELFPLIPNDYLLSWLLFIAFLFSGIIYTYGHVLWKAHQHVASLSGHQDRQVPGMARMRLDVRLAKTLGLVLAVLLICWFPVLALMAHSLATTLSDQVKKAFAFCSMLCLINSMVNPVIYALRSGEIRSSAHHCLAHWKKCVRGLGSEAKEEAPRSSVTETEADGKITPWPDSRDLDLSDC

[3] = biological target: T1, Cannabinoid receptor 1; experiment: Agonist activity at recombinant human CB1 receptor expressed in CHO cells assessed as inhibition of forskolin-induced cAMP accumulation preincubated for 15 mins followed by forskolin stimulation and measured after 15 mins by HTRF assay; assay type: functional, cell-based
[4] = biological target: T1, Cannabinoid receptor 1; experiment: Agonist activity at recombinant human CB1 receptor expressed in CHO cells assessed as inhibition of forskolin-induced cAMP accumulation by measuring maximum efficacy preincubated for 15 mins followed by forskolin stimulation and measured after 15 mins by HTRF assay relative to control; assay type: functional, cell-based; settings: filed as agonist, time 30.0 min
[5] = biological target: T2, Cannabinoid receptor 2; experiment: Agonist activity at recombinant human CB2 receptor expressed in CHO cells assessed as inhibition of forskolin-induced cAMP accumulation preincubated for 15 mins followed by forskolin stimulation and measured after 15 mins by HTRF assay; assay type: functional, cell-based
[6] = biological target: T2, Cannabinoid receptor 2; experiment: Agonist activity at recombinant human CB2 receptor expressed in CHO cells assessed as inhibition of forskolin-induced cAMP accumulation by measuring maximum efficacy preincubated for 15 mins followed by forskolin stimulation and measured after 15 mins by HTRF assay relative to control; assay type: functional, cell-based; settings: filed as agonist, time 30.0 min
[7] = Metabolic stability in human liver microsomes assessed as half life; assay type: ADME, Microsome
[8] = Metabolic stability in rat liver microsomes assessed as half life; assay type: ADME, Microsome
[9] = Metabolic stability in rat liver microsomes assessed as intrinsic clearance; assay type: ADME, Microsome; settings: read-out: CLH
[10] = Metabolic stability in mouse liver microsomes assessed as half life; assay type: ADME, Microsome
[11] = Metabolic stability in mouse liver microsomes assessed as intrinsic clearance; assay type: ADME, Microsome; settings: read-out: CLH
[12] = Metabolic stability in human liver microsomes assessed as intrinsic clearance; assay type: ADME, Microsome; settings: read-out: CLH

| Compound | Ki [1] [nM] | Ki [2] [nM] | EC50 [3] [nM] | Emax [4] [%] | EC50 [5] [nM] | Emax [6] [%] | half-life [7] [min] | half-life [8] [min] | CLint scaled [9] [mL/min/kg] | half-life [10] [min] | CLint scaled [11] [mL/min/kg] | CLint scaled [12] [mL/min/kg] |
| --- | --- | --- | --- | --- | --- | --- | --- | --- | --- | --- | --- | --- |
| CCCCCC[Si](C)(C)c1cc(O)c2c(c1)OC(C)(C)[C@@H]1CC=C(CO)C[C@@H]21 | 0.43 | 0.97 | 6.58 | 105 | 61.3 |  |  |  |  |  |  |  |
| CCCCCC[Si](C)(C)c1cc(O)c2c(c1)OC(C)(C)c1ccc(C)cc1-2 | 0.79 | 2.21 | 12.3 | 98.4 | 32.6 | 862 |  |  |  |  |  |  |
| CCCCCC[Si](C)(C)c1cc(O)c(C2CCCCCC2)c(OC)c1 | 182 | 67.2 | 3120 | 67.8 | 82.7 | 98.7 |  |  |  |  |  |  |
| CCCCCC[Si](C)(C)c1cc(O)c(C2CCCCC2)c(OC)c1 | 448 | 165 | 554 | 73.9 | 76.4 | 92.7 |  |  |  |  |  |  |
| CCCC[Si](C)(C)c1cc(O)c2c(c1)OC(C)(C)c1ccc(CO)cc1-2 | 2.79 | 3.49 | 214 | 94.8 | 267 | 92.8 |  |  |  |  |  |  |
| CCCCCC[Si](C)(C)c1cc(O)c2c(c1)OC(C)(C)[C@@H]1CCC(C)=C[C@@H]21 | 0.8 | 7.41 | 5.94 | 99.2 | 20.2 | 90.2 |  |  |  |  |  |  |
| C=C(C)[C@@H]1CCC(C)=C[C@H]1c1c(O)cc([Si](C)(C)CCCC)cc1O | 15 | 7.25 | 403 | 94.6 | 190 | 82.7 |  |  |  |  |  |  |
| CCCCCC[Si](C)(C)c1cc(O)c2c(c1)OC(C)(C)c1ccc(CO)cc1-2 | 0.35 | 1.25 | 59.1 | 93 | 27400 | 92.7 |  |  |  |  |  |  |
| CCCCCC[Si](C)(C)c1cc(O)c([C@H]2C=C(CO)[C@H]3C[C@@H]2C3(C)C)c(O)c1 | 14.3 | 11.4 | 248 | 102 | 63.5 | 94.1 |  |  |  |  |  |  |
| CCCC[Si](C)(C)c1cc(O)c(C2CCCC2)c(O)c1 | 464 | 368 |  |  | 53.8 | 102 |  |  |  |  |  |  |
| CCCC[Si](C)(C)c1cc(O)c(C2CCCCC2)c(OC)c1 | 671 | 396 |  |  | 707 | 90.4 |  |  |  |  |  |  |
| C=C(C)[C@@H]1CCC(C)=C[C@H]1c1c(O)cc(CCCCC)cc1O [CANNABIDIOL] |  |  |  |  |  |  | 4.46 | 1.44 | 4900 | 1.11 | 1720 | 390 |
| CCCC[Si](C)(C)c1cc(OC)c([C@H]2C=C(CO)[C@H]3C[C@@H]2C3(C)C)c(OC)c1 | 454 | 227 |  |  | 899 | 83.6 |  |  |  |  |  |  |
| CCCC[Si](C)(C)c1cc(O)c(C2CCCCCC2)c(OC)c1 |  | 616 |  |  | 475 | 93.3 |  |  |  |  |  |  |
